For one molecule, activity results are on record in publication PMC11605156, “Triterpenoids from Ganoderma lucidum inhibit cytochrome P450 enzymes interfering with the metabolic process of specific clinical drugs” (Frontiers in Pharmacology, 2024).

The data set concerns the target T1, CYP1A2 (Homo sapiens, UniProt P05177).
T1 sequence (P05177 1-516): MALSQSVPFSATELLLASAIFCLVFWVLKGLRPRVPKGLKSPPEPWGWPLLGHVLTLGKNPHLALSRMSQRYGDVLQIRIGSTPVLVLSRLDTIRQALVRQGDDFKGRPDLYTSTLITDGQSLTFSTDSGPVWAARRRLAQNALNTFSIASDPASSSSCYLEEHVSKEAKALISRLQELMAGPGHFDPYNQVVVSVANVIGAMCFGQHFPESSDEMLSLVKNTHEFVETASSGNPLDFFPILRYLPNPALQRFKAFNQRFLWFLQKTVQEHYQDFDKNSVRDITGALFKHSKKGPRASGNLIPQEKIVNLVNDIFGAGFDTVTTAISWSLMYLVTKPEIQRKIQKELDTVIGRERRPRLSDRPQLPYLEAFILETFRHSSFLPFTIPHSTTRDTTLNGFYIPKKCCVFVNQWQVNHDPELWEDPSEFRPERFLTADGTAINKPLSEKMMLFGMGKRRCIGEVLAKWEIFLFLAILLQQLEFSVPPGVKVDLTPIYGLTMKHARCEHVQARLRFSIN
Nature of the data set: CYP1A2 inhibition, probe/drug metabolism in human liver microsomes (LC-MS/MS). As to conditions: human, human liver microsomes, pH 7.4, probe phenacetin 40 μM, Residual activity (%) CYP1A2, HLM 0.5 mg/mL, phenacetin 40 μM, 30 min. In general terms: Liver microsomes are vesicles of endoplasmic reticulum, rich in cytochrome P450 enzymes.

Consider `CC(CCC(O)C(C)(O)CO)C1CCC2(C)C3=C(C(=O)CC12C)C1(C)CCC(=O)C(C)(C)C1CC3` (stereo not shown) [Compound 25, ganodrol C], for which the activity at 30 min turned out to be 104 ± 18.9%.
